The subject of one assay is HepG2 cells. The assay is described as follows: HepG2 Cell Culture Model--14C-Acetate Incorporation Assay (cholesterol biosynthesis). Format: cell-based. As to conditions: Homo sapiens. Here is the method:
(a) Isolated Hepatocyte cholesterol biosynthesis assay: HepG2 Cell Culture Model--14C-Acetate Incorporation Assay
HepG2 cells obtained from the American Type Culture Collection were routinely passed in RPMI-1640 plus 10% fetal bovine serum (FBS) and were subculture into 35 mm diameter wells for experiments. […] The LDS medium supplement was prepared according to Cham et al., J. Lipid Res., 17: 176-181, (1976). After about 16 hours in LDS containing media, test compounds were added in dimethylsulfoxide vehicle (0.5% v/v final conc.) for the period of time indicated in the data (generally 4 hours). Cholesterol synthesis was then directly determined by the incorporation of 2-14C-acetate (1.8-3.0 mCi/mmol) into digitonin-precipitable sterols essentially as described for the rat hepatocyte method above. Greater than 97% of the radiolabelled sterol isolated by this procedure was cholesterol as judged by HPLC. Percent inhibition was calculated from the average of duplicates or triplicates vs. controls receiving vehicle.

Assay [1] relates to hydroxymethylglutaryl coenzyme A reductase (HMGcoA reductase). The assay is described as follows: HMGCo-A reductase suppression. In kind it is cell-based.
The nature of assay [2]: In vivo cholesterol biosynthesis in hamsters (plasma lipids). Also noted: species or system hamsters (male F1 B). Here is the method: (c) In vivo cholesterol biosynthesis in hamsters was assayed using the following protocol: four groups of hamsters (male F1 B, fed 0.5% cholesterol 10% coconut oil), average weight 120-150 gm, were run in parallel (N=10 per group). The animals were initially fed the atherogenic diet for 20 days to determine their pre-drug plasma lipid levels. They were randomized so that each group had the same average plasma total cholesterol. The three of the four groups were started on their respective drug containing diet (day 0), while the remaining group served as controls.

[3] abbreviates: HepG2, read-out: HEPG2 Sterol biosynthesis inhibition @ 10 μM.
Where [4] appears, read: HepG2 cells, 14C-acetate incorporation, generally 4 hours, read-out: HepG2 @ 10 μM (inhibition of cholesterol biosynthesis).
Where [5] appears, read: plasma, Day 0 (pre-drug), atherogenic diet, N=10 per group.

We go through four compounds from patent publication US5321046A, “Hypocholesterolemic unsymmetrical dithiol ketals” (Bristol-Myers Squibb Company, priority 1992, dated 1994).

Like-named read-outs stand apart in the source and are kept apart here.

Regarding `CC(C)=CCCC(C)=CCCC(C)=CCSC(C)(C)Sc1ccc(O)cc1` [Example 11, 4-[[1-Methyl-1-[(3,7,11-trimethyl-2,6,10-dodecatrienyl)thio]ethyl]thio]phenol], the inhibition at 10 µM in the assay on HepG2 cells (setting [3]) is 63%. The inhibition at 10 µM with HepG2 cells (setting [4]) amounted to 63%. In addition, the “HMGCo-A reductase suppression @ 10 μM” value in assay [1] worked out at 37%. In assay [2] (F1 B hamsters, over control), the “reduction in LDL-cholesterol over control” value was -25% and the “reduction in overall cholesterol over control” value was -18%. For the same compound, in assay [2] (setting [5]), the “LDL Cholesterol, Day 0” value was determined as 319 ± 89 mg/dL and the “Total cholesterol, Day 0” value worked out at 399 ± 82 mg/dL. Further, the “LDL Cholesterol, Day 21” value in assay [2] (plasma, Day 21, drug containing diet, control 333 ± 137) amounted to 256 ± 85 mg/dL. In assay [2] (plasma, Day 21, drug containing diet, control 407 ± 144), the “Total cholesterol, Day 21” value came out at 336 ± 90 mg/dL.

For `CC(=O)Oc1ccc(SC(C)(C)SCC=C(C)CCC=C(C)CCC=C(C)C)c(C)c1` [Example 15, 3-Methyl-4-[[1-methyl-1-[(3,7,11-trimethyl-2,6,10-dodecatrienyl)thio]ethyl]thio]phenol acetate], the inhibition at 10 µM in the assay on HepG2 cells (setting [4]) amounted to 75%.

As to `CCOC(=O)C(C)(SCC=C(C)CCC=C(C)CCC=C(C)C)Sc1cc(C)c(O)c(C)c1` (stereo not drawn) [Example 27, Propanoic Acid, 2-[(4-hydroxy-3,5-dimethylphenyl)thio]-2-[(3,7,11-trimethyl-2,6,10-dodecatrienyl)thio]ethyl ester], the inhibition at 10 µM in the assay on HepG2 cells (setting [3]) and with HepG2 cells (setting [4]) was 79% in each case. In assay [1], the “HMGCo-A reductase suppression @ 10 μM” value is 51%. The “down-regulation of HMGcoA reductase (in words)” value in assay [1] (in words) is recorded as “down-regulate the key enzyme in the cholesterol biosynthesis”.

As to `CC(C)=CCCC(C)=CCCC(C)=CCSC(C)(C)Sc1ccc(F)cc1` [Example 36, 4-Fluoro-1-[[1-methyl-1-[(3,7,11-trimethyl-2,6,10-dodecatrienyl)thio]ethyl]thio]benzene], the inhibition at 10 µM in the assay on HepG2 cells (setting [4]) is 20%.
